Test results: PubChem BioAssay AID2286 (Southern Research Specialized Biocontainment Screening …, 2010)
Calls of active or inactive are those of the source.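 Rule for the calls: active = minimum cell viability of 80% or lower across the dose range, counted as toxic; inactive = minimum cell viability above 80%.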

Assay: MAGI-CCR5 and HeLa-R5-16 cytotoxicity, dose response, cytotoxicity control for HIV-1 fusion inhibitor project, cell-based, MAGI and MAGI-HeLa co-culture (AID 2286);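 note: cells exposed to compound for at least 64 h before ATP readout; 100% = median of DMSO vehicle wells with no ATP signal meaning 0%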
Conditions: MAGI-CCR5 cells viability, CellTiter-Glo ATP luminescence; for minimum viability: measured here: MAGI minimum viability across doses
[1] = MAGI-HeLa co-culture viability, at 50 µM, stronger effect = lower value
[2] = at 3.13 µM, stronger effect = lower value
[3] = at 6.25 µM, stronger effect = lower value
[4] = at 12.5 µM, stronger effect = lower value

SMILES | viability [1] [%] | viability (at 50 µM (top of the series)) | minimum viability (at 50 µM, stronger effect = lower value) [%] | also measured
O=C(O)c1ccc(NS(=O)(=O)c2ccc3c(c2)C2C=CCC2C(c2ccccc2F)N3)cc1 (stereo not drawn) | 111 | 102% (inactive) | – | minimum viability [2]: 93.8%
CC(C)CS(=O)(=O)C1=NSC2=NC(=O)/C(=C\c3ccc(OC(=O)c4ccco4)cc3)C(=N)N21 | 104 | 95.1% (inactive) | – | minimum viability [3]: 85.3%
O=C(O)COc1ccccc1/C=N/Nc1ccc(S(=O)(=O)Nc2ccc(Cl)cc2)cc1[N+](=O)[O-] | 103 | 99.2% (inactive) | – | minimum viability (at 25 µM, stronger effect = lower value): 90.6%
Cc1cc(N2C(=O)C(O)=C(C(=O)c3ccc(C)o3)C2c2cccc(Oc3ccccc3)c2)no1 (stereo not drawn) | 89 | 82.1% (inactive) | 82.1 | –
CCCCCOc1ccc(C2C(C(=O)c3ccc(C)o3)=C(O)C(=O)N2c2cc(C)on2)cc1 (stereo not drawn) | 113 | 85.1% (inactive) | – | minimum viability (at 25 µM, stronger effect = lower value): 84.6%
O=c1/c(=C\c2cc([N+](=O)[O-])cc([N+](=O)[O-])c2O)sc2nc3ccccc3n12 | 115 | 104% (inactive) | – | minimum viability [3]: 97.5%
COc1cc(Cl)cc(C(c2c(C(=O)O)[nH]c3ccccc23)c2c(C(=O)O)[nH]c3ccccc23)c1O | 100 | – | – | viability (at 25 µM (top of the series)): 80.5% (inactive); minimum viability (at 25 µM, stronger effect = lower value): 80.5%
CC(c1ccccc1)N1C(=O)c2ccc(C(=O)Nc3ccccc3C(=O)O)cc2C1=O (stereo not drawn) | 111 | 100% (inactive) | – | minimum viability (at 25 µM, stronger effect = lower value): 85.5%
O=C(O)CSc1cc(C(=O)c2cc(F)ccc2O)cn2c(=O)c3c(-c4ccccc4)csc3nc12 | 88 | – | 56.4 | –
O=C1NN(c2ccc(F)c(Cl)c2)C(=O)/C1=C\c1cccc(OC(=O)c2cccs2)c1 | 111 | 92.7% (inactive) | 92.7 | –
N=C1/C(=C/c2ccc(-c3cccc(C(=O)O)c3)o2)C(=O)N=C2SC=C(c3ccccc3)N12 | 104 | 85.3% (inactive) | 85.3 | –
O=C(COc1ccc2ccccc2c1)Nc1cccc(C(=O)Nc2ccccc2C(=O)O)c1 | 101 | 83.3% (inactive) | 83.3 | –
O=C(Nc1ccc(C(=O)O)cc1)/C(=C\C=C\c1ccccc1)NC(=O)c1cccc(Br)c1 | 85.1 | 89.9% (inactive) | – | minimum viability [3]: 83.2%
O=C(O)/C(CC(=O)c1ccc(Cl)cc1)=N/Nc1ccc([N+](=O)[O-])cc1[N+](=O)[O-] | 114 | 84% (inactive) | 84 | –
COc1ccc(N=C2S/C(=C\c3ccc(OCC(=O)O)cc3)C(=O)N2CCc2c[nH]c3ccccc23)cc1 | 173 | 93.7% (inactive) | – | minimum viability (at 25 µM, stronger effect = lower value): 90.8%
CC1=C(C#N)C(=O)NC(=O)/C1=C\c1ccc(-c2cc(C)c(C)cc2[N+](=O)[O-])o1 | 107 | 86.5% (inactive) | – | minimum viability [4]: 83.3%
COc1cc(/C=C2\SC(=O)N(c3ccccc3Cl)C2=O)cc([N+](=O)[O-])c1O | 85.2 | – | 50 | –
Cc1c(CCC(=O)O)c(=O)oc2c(C)c3occ(-c4ccc(Cl)cc4)c3cc12 | 117 | – | – | minimum viability (at 25 µM, stronger effect = lower value): 64%
O=C1NN(c2ccccc2)C(=O)/C1=C\c1cccc(OC(=O)c2cccs2)c1 | 103 | 85.1% (inactive) | 85.1 | –
O=C(COc1ccc(Cl)cc1Cl)Nc1ccc(C(=O)Nc2ccccc2C(=O)O)cc1 | 92.6 | – | 71.9 | –
O=C(O)CN1C(=O)/C(=C\c2cc(Br)ccc2OCc2ccccc2F)SC1=S | 113 | 101% (inactive) | 101 | –

SMILES | viability [1] [%] | viability (at 50 µM (top of the series)) | minimum viability (at 50 µM, stronger effect = lower value) [%] | also measured
O=C(CN1C(=O)S/C(=C\C=C\c2ccccc2)C1=O)Nc1ccccc1C(=O)O | 103 | 90.4% (inactive) | – | minimum viability [4]: 83.6%
CC(Oc1ccc(Cl)cc1Cl)C(=O)Nc1ccc(S(=O)(=O)Nc2cnc3ccccc3n2)cc1 (stereo not drawn) | 96.5 | – | 66.7 | –
CCc1nnc(NS(=O)(=O)c2ccc(NC(=S)NC(=O)/C=C/c3ccc(C(C)C)cc3)cc2)s1 | 117 | 82.2% (inactive) | 82.2 | –
Cc1ccc(Cl)cc1N1CCN(C(=O)Cc2c(C(=O)O)[nH]c3ccc(Cl)cc23)CC1 | 98.9 | 91.8% (inactive) | – | minimum viability [4]: 85.7%
COc1ccc(OC)c(/C=C2\SC(=S)N(NS(=O)(=O)c3ccc(C)cc3)C2=O)c1 | 107 | 101% (inactive) | – | minimum viability (at 1.56 µM, stronger effect = lower value): 90.5%
COc1cc(/C=C2\SC(=O)N(CC(=O)Nc3cccc(C)c3)C2=O)cc([N+](=O)[O-])c1O | 111 | – | 74.5 | –
NS(=O)(=O)c1cc(C(=O)NC2CCSc3ccccc32)ccc1Cl (stereo not drawn) | 103 | 84.3% (inactive) | 84.3 | –
O=C(O)c1cccc2c(-c3ccccc3)c(-c3ccccc3)[nH]c12 | 128 | 93.1% (inactive) | 93.1 | –
CCOc1cc(/C=C2\SC(=S)N(C(C(=O)O)c3ccccc3)C2=O)ccc1O (stereo not drawn) | 90.8 | 96.9% (inactive) | – | minimum viability [2]: 85.8%
CCOc1cc(/C=N/NC(=O)c2ccc(-c3csc(Nc4ccc(C)cc4)n3)cc2)ccc1OCC(=O)O | 92.6 | 90.2% (inactive) | – | minimum viability [4]: 83.3%
COc1cc(/C=C2/C(=O)NN(c3ccc(Cl)cc3)C2=O)ccc1OC(=O)c1ccco1 | 115 | 96.4% (inactive) | 96.4 | –
O=C(O)c1cc(N2N=C(C(F)(F)F)/C(=C/C=C/c3ccco3)C2=O)ccc1Cl | 120 | 92.8% (inactive) | – | minimum viability [4]: 84.9%
COc1cccc(C2C3=C(N=c4s/c(=C\c5ccc(OCC(=O)O)cc5)c(=O)n42)c2ccccc2CC3)c1 (stereo not drawn) | 103 | 90.2% (inactive) | – | minimum viability [4]: 85%
CSc1ccc(C(c2c(C(=O)O)[nH]c3ccccc23)c2c(C(=O)O)[nH]c3ccccc23)cc1 | 89.8 | 92.8% (inactive) | – | minimum viability [3]: 90.5%
COc1ccc(/C=C2/SC(=O)N(CCCCCC(=O)Nc3ccccc3C(=O)O)C2=S)cc1 | 122 | – | 66.9 | –
CC(C)(C)OC(=O)N1CCC(c2cc(=O)n3[nH]cc(C(=O)Nc4ccc(F)c(Cl)c4)c3n2)CC1 | 98.3 | 97.5% (inactive) | – | minimum viability (at 25 µM, stronger effect = lower value): 88.7%
O=C(O)c1cccc(N/N=C/c2cc(Br)cc(Br)c2O)c1 | 132 | 127% (inactive) | – | minimum viability [2]: 90.9%
COc1cc(NS(=O)(=O)c2ccc(Nc3nc(-c4ccccc4)cs3)cc2)nc(OC)n1 | 82.3 | – | 67.3 | –
COc1cc(/C=N/Nc2ccc(Cl)c(C(=O)O)c2)ccc1OC(=O)c1ccccc1F | 105 | 103% (inactive) | – | minimum viability [2]: 95.8%
COc1cccc(-c2nc(SCC(=O)Nc3nc(-c4ccccc4)c(C)s3)[nH]c(=O)c2C#N)c1 | 116 | 87.6% (inactive) | 87.6 | –
COc1cc(/C=C2\SC(=Nc3ccccc3)N(CCc3c[nH]c4ccccc34)C2=O)ccc1OC(C)C(=O)O (stereo not drawn) | 103 | – | – | viability (at 25 µM (top of the series)): 101% (inactive); minimum viability [3]: 95.5%
